Test: Single dose bioavailability study on fasted subjects
Conditions: human, in vivo, Galenical formulation Example 4 (composition 2.3)
Description: A single dose bioavailability study is conducted on N fasted subjects using the composition of this Example (N=7, dose of compound I-A 433.3 mg corresponding to 400 mg free base of formula I-B), and the same amount in powder form filled into hard capsules, (N=6). BAL8557, a water-soluble prodrug of the compound of formula I-B according to EP-A-1 280 795, is used as a standard (capsule comprising BAL 8557 in powder form in an amount corresponding to 400 mg free base of formula I-B; N=3).

[1] = single oral dose 433.3 mg I-A (400 mg free base I-B), N=7

bioavailability (433.3 mg, single oral dose equal to 400 mg free base I-B, BAL 8557 as standard, read-out: Frel (relative bioavailability)): 90%
Cmax [1]: 4410 ng/mL
Tmax [1]: 1.5 h
half-life [1]: 88 h
AUC (single oral dose 433.3 mg I-A (400 mg free base I-B), N=7, read-out: AUCinfinite): 193 µg·h/mL
Compound: C[C@@H](c1nc(-c2ccc(C#N)cc2)cs1)[C@](O)(Cn1cncn1)c1cc(F)ccc1F.Cl [Compound I-A]
